Among the test systems are U251 CNS; HOP-92 NSCLC; RPMI-8226 leukemia; ACHN renal; SK-MEL-2 melanoma; HT29 colon; HCT-116 colon; HL-60(TB) leukemia; SW-620 colon; K-562 leukemia.
What all share (assay): NCI-60 cell line screen, 48 h

Consider nine compounds from PubChem BioAssay (NCI).

The structures appear in SMILES notation. “And” between values parts separate entries of the source, which are not always exact repeats. Equal values may be shown once.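 Each compound was tested at five concentrations against cells in 96-well plates for 48 hours. Here, GI50 denotes the concentration required for 50% inhibition of growth. Definition used: TGI = concentration required for complete inhibition of growth.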

In the case of `COc1ccc(CCN2C(=O)C=CC2=O)cc1OC`, the TGI in the test with U251 CNS amounted to 39.1 µM; with HOP-92 NSCLC, 40.1 µM; in the test with RPMI-8226 leukemia, 3.18 µM; in the test on ACHN renal, 3.17 µM; with SK-MEL-2 melanoma it was 14.8 µM; in the test on HT29 colon, 13.7 µM. In addition, the TGI was 11.2 µM with HCT-116 colon, 21.5 µM in the test on HL-60(TB) leukemia, 5.65 µM in the test on SW-620 colon and above 100 µM in the test with K-562 leukemia.
Take `[O-]c1c2c(nn1-c1ccccc1)c1ccccc1c[n+]2Cc1ccccc1`: the TGI in the test on U251 CNS, with HOP-92 NSCLC, with RPMI-8226 leukemia, with ACHN renal, in the test on SK-MEL-2 melanoma and in the test on HT29 colon was above 100 µM in each case. Further, the TGI in the test with HCT-116 colon, with HL-60(TB) leukemia, in the test with SW-620 colon and in the test with K-562 leukemia was above 100 µM in each case.
Take `CCOC(=O)C12CCCC1(O)N(NC(=O)c1ccccc1)C(C)=C2C(=O)OC` (configuration not stated): the TGI with U251 CNS, with HOP-92 NSCLC, in the test on RPMI-8226 leukemia, in the test with ACHN renal, in the test on SK-MEL-2 melanoma and in the test on HT29 colon was above 100 µM in each case. Besides, the TGI in the test with HCT-116 colon, in the test on HL-60(TB) leukemia, with SW-620 colon and in the test with K-562 leukemia was above 100 µM in each case.
On to `CC1=NN(c2ccccc2)C(=O)C1N=Nc1ccc([As](=O)(O)O)c(O)c1` (configuration not stated), for which the TGI in the test on U251 CNS, in the test on HOP-92 NSCLC, with RPMI-8226 leukemia, with ACHN renal, in the test on SK-MEL-2 melanoma and with HT29 colon was above 100 µM each time. In addition, the TGI in the test with HCT-116 colon, in the test with HL-60(TB) leukemia, in the test on SW-620 colon and in the test with K-562 leukemia was above 100 µM throughout.
As for `COc1ccc(N(CC(=O)NCCC[Te]c2ccccc2)C(=O)c2ccccc2)cc1`, the GI50 is 2.82 µM with U251 CNS; 4.1 µM in the test on HOP-92 NSCLC; 3.18 µM in the test with RPMI-8226 leukemia; 3.17 µM with ACHN renal; 4.19 µM in the test on SK-MEL-2 melanoma; 3.84 µM with HT29 colon. The GI50 is 2.55 µM in the test with HCT-116 colon, 2.12 µM with HL-60(TB) leukemia, 3.87 µM with SW-620 colon and 5.17 µM in the test on K-562 leukemia. The TGI is 9.4 µM in the test with U251 CNS; 19.2 µM in the test on RPMI-8226 leukemia; 9.6 µM with ACHN renal; 15.3 µM with SK-MEL-2 melanoma; above 100 µM with HT29 colon; 10.2 µM in the test on HCT-116 colon. Also, the TGI was 5.73 µM in the test with HL-60(TB) leukemia, 14.4 µM with SW-620 colon and above 100 µM with K-562 leukemia.
`Oc1ccc(-c2nnc3sc(-c4ccc(F)c(Oc5ccccc5)c4)nn23)cc1`: the GI50 with U251 CNS is 17.5 µM; in the test with HOP-92 NSCLC it was 26.1 µM; in the test on RPMI-8226 leukemia, 28.4 µM; in the test with ACHN renal, 22.7 µM; in the test with SK-MEL-2 melanoma, above 100 µM; in the test with HT29 colon it was 27.4 µM. Besides, the GI50 with HCT-116 colon was 23.5 µM; with HL-60(TB) leukemia, above 100 µM; in the test on SW-620 colon, 83 µM; in the test on K-562 leukemia, above 100 µM. For the same compound, the TGI with U251 CNS is 36.5 µM; in the test with HOP-92 NSCLC, above 100 µM; in the test with RPMI-8226 leukemia, above 100 µM; with ACHN renal, 78.3 µM; with SK-MEL-2 melanoma it was above 100 µM; in the test on HT29 colon, above 100 µM. In addition, the TGI in the test on HCT-116 colon, with HL-60(TB) leukemia, in the test with SW-620 colon and with K-562 leukemia was above 100 µM throughout.
For the compound `O=C1CC(c2ccc(N3CCOCC3)cc2)(c2ccsc2)NC(=O)C1Sc1ccccc1Cl` (configuration not stated), the GI50 is 19.5 µM in the test with U251 CNS; 11.8 µM in the test with HOP-92 NSCLC; 31.6 µM with RPMI-8226 leukemia; 47.4 µM with ACHN renal; 49.3 µM in the test on SK-MEL-2 melanoma; 46.4 µM in the test with HT29 colon. Further, the GI50 in the test on HCT-116 colon is 25.4 µM; with HL-60(TB) leukemia, above 100 µM; with SW-620 colon it was 21.6 µM; with K-562 leukemia, 4.69 µM. For the same compound, the TGI in the test with U251 CNS, with HOP-92 NSCLC, in the test on RPMI-8226 leukemia, with ACHN renal, in the test with SK-MEL-2 melanoma and in the test on HT29 colon was above 100 µM throughout. For the same compound, the TGI in the test on HCT-116 colon, with HL-60(TB) leukemia, with SW-620 colon and in the test on K-562 leukemia was above 100 µM throughout.
On to `O=c1c2cccc(Cl)c2sc2c(NCCCNCCO)nc3ccccc3c12`, for which the GI50 is 1.84 µM with U251 CNS; 1.26 µM with HOP-92 NSCLC; 2.1 µM in the test on RPMI-8226 leukemia; 1.44 µM in the test with ACHN renal; 10.9 µM with SK-MEL-2 melanoma; 1.68 µM with HT29 colon. Moreover, the GI50 with HCT-116 colon is 1.57 µM; in the test on HL-60(TB) leukemia, 2.4 µM; in the test with SW-620 colon it was 1.41 µM; in the test with K-562 leukemia, 1.81 µM. In addition, the TGI is 4.13 µM with U251 CNS; 7.82 µM in the test on HOP-92 NSCLC; 5.45 µM in the test on RPMI-8226 leukemia; 2.8 µM with ACHN renal; 26.3 µM in the test on SK-MEL-2 melanoma; 3.37 µM in the test with HT29 colon. The TGI turned out to be 3.13 µM with HCT-116 colon, 5.49 µM in the test with HL-60(TB) leukemia, 2.95 µM in the test on SW-620 colon and 4.03 µM in the test on K-562 leukemia.
As to `COC(=O)NC1C(C)OC(OC2C/C=C(/C)C3C=CC4C(OC5CC(OC6CC(O)C(OC7CC(O)C(OC)C(C)O7)C(C)O6)C(O)C(C)O5)C(C)CC(C)C4C3(C)/C(O)=C3\C(=O)OC4(CC(C)C(CO)=CC4/C=C\2C)C3=O)CC1(C)[N+](=O)[O-]` (configuration not stated), the TGI is 32.2 µM and 27.6 µM with U251 CNS; 19.7 µM and 32.7 µM in the test on HOP-92 NSCLC; 50 µM and 26.9 µM in the test on RPMI-8226 leukemia; 35.5 µM and 30.6 µM with ACHN renal; 17.4 µM and 29.6 µM in the test on SK-MEL-2 melanoma; 15.9 µM and 35.9 µM with HT29 colon. Moreover, the TGI with HCT-116 colon is 14.8 µM and 23.4 µM; in the test on HL-60(TB) leukemia it was 21.3 µM and 24.2 µM; in the test on SW-620 colon, 19.7 µM and 35.2 µM; in the test with K-562 leukemia it was 14.7 µM and 71.8 µM. The GI50 in the test with HOP-92 NSCLC is 9.95 µM; in the test with RPMI-8226 leukemia it was 15.7 µM; with ACHN renal, 14.8 µM; with SK-MEL-2 melanoma, 9.66 µM; with HT29 colon, 8.34 µM; with HCT-116 colon, 8.04 µM. Besides, the GI50 with HL-60(TB) leukemia is 7.94 µM; in the test with K-562 leukemia it was 3.64 µM.
